# Target: T1, human LPAR1 (Homo sapiens, UniProt Q92633)
# T1 construct: expressed in transfected cells
# Test: Test Example 1: antagonism against response of LPA-induced increase in intracellular Ca2+ concentration in RH7777 cells stably expressing human LPAR1
# Assay type: cell-based
# Details: not given
# Procedure, shortened: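 RH7777 cells stably transfected with human LPAR1 were preincubated with test compound 30 min at 37 °C in HBSS/20 mM HEPES/probenecid/0.05% BSA buffer, pH 7.4, then LPA-stimulated.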
# T1 sequence (Q92633 whole entry): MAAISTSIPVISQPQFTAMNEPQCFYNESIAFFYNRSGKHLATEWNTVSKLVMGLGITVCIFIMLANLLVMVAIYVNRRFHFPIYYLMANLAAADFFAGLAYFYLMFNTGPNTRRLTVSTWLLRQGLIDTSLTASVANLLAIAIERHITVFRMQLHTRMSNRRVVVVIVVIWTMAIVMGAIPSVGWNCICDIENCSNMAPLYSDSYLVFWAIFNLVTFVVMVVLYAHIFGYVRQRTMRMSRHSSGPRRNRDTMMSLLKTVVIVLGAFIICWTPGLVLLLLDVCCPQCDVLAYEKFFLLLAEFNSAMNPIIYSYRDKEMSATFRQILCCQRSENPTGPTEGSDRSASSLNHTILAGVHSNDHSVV
row,IC50,Compound
1,4680 nM,COc1cc(CN(CCCCc2ccccc2)C(=O)NC(CC(C)C)C(=O)O)cc(OC)c1C (stereo not drawn) [Example 1-5]

# Same assay, conditions: RH7777 cells stably expressing human LPAR1; Fluo-4 fluorescence, FDSS6000; read-out: IC50 value (concentration producing 50% antagonism against response of LPA-induced increase in intracellular Ca2+ concentration) (converted)
row,Compound,IC50
1,"CCOc1cc([C@@H](C)N(CCCCC2CCNCC2)C(=O)NC2(C(=O)O)CC(F)(F)C2)cc(OCC)c1C [Example 4-34, 1-({[(1R)-1-(3,5-Diethoxy-4-Methylphenyl)Ethyl][4-(Piperidin-4-Yl)Butyl]Carbamoyl}Amino)-3,3-Difluorocyclobutane-1-Carboxylic Acid]",7630 nM
2,CCOc1cc(C(C)N(CCCCc2cc(F)cc(F)c2)C(=O)NC2(C(=O)O)CC(F)(F)C2)cc(OCC)c1C (stereo not drawn) [Example 4-10],26.4 nM
3,CCOc1cc(C(C)N(CCCCc2ccccc2)C(=O)NC(CC(=O)O)C(=O)O)cc(OCC)c1C (stereo not drawn) [Example 1-12],3600 nM
4,CCOc1cc(C(C)N(CCCCc2ccccc2)C(=O)NC2(C(=O)O)CC(F)(F)C2)cc(OCC)c1C1CC1 (stereo not drawn) [Example 1-25],2.71 nM
5,CCOc1cc(C(C)N(CCCCc2ccccc2)C(=O)NC2(CC(=O)O)CCCC2)cc(OCC)c1C (stereo not drawn) [Example 1-146],24.3 nM
6,COc1cc(C(C)N(CCOCc2ccccc2)C(=O)NC2(C(=O)O)CCOCC2)c(Cl)c(OC)c1C1CC1 (stereo not drawn) [Example 5-175],4.93 nM
7,CCOc1cc(C(C)N(CCCCc2ccccc2)C(=O)NC2(C(=O)O)CC(F)(F)C2)cc(OCC(F)(F)F)c1C (stereo not drawn) [Example 1-63],10.9 nM
8,O=C(NC1(C(=O)O)CC(F)(F)C1)N(CCCCc1ccccc1)C1COc2c(Cl)cc(Cl)cc21 (stereo not drawn) [Example 5-117],5.59 nM
9,CCNc1cc(C(C)N(CCCCc2ccccc2)C(=O)NC2(C(=O)O)Cc3ccccc3C2)cc(OCC)c1C(C)=O (stereo not drawn) [Example 5-104],20.7 nM
10,CCOc1cc([C@@H](C)N(CCCCc2ccccc2)C(=O)NCCCC(=O)O)cc(OCC)c1C [Example 1-15],280 nM
11,"CCOc1cc([C@@H](C)N(CCCCc2ccccc2)C(=O)NC2(C(=O)O)CC(F)(F)C2)cc(OCC)c1C1CC1 [Example 1-46, Sodium 1-({[(1R)-1-(4-Cyclopropyl-3,5-Diethoxyphenyl)Ethyl](4-Phenylbutyl) Carbamoyl}Amino)-3,3-Difluorocyclobutane-1-Carboxylate]",1 nM
12,CCOc1cc([C@@H](C)N(CCCC(F)(F)c2ccccc2)C(=O)NC2(C(=O)O)CC(F)(F)C2)cc(OCC)c1C1CC1 [Example 4-59],1.62 nM
13,CCOc1cc(C(C)N(CCCCc2ccccc2)C(=O)NC2(C(=O)O)CC(F)(F)C2)cc(OCC)c1OCC (stereo not drawn) [Example 1-55],7.44 nM
14,CCOc1cc(C(C)N(CCCCc2ccccc2)C(=O)NC2(c3nn[nH]n3)CCCC2)cc(OCC)c1C (stereo not drawn) [Example 10-18],38.4 nM
15,"CCCCN(C(=O)NC1(C(=O)O)CC(F)(F)C1)[C@H](C)c1cc(OCC)c(C)c(OCC)c1 [Example 4-1, 1-({Butyl[(1R)-1-(3,5-Diethoxy-4-Methylphenyl)Ethyl]Carbamoyl}Amino)-3,3-Difluorocyclobutane-1-Carboxylic Acid]",2500 nM
16,COc1cc(C(C)N(CCCCc2ccccc2)C(=O)NC2(C(=O)O)CCCC2)cc(OC)c1C (stereo not drawn) [Example 1-116],57.4 nM
17,COc1cc(OC)nc(C(C)N(CCCCc2ccccc2)C(=O)NC2(C(=O)O)CC(F)(F)C2)n1 (stereo not drawn) [Example 5-87],195 nM
18,CCOc1cc([C@@H](C)N(CCCC(F)(F)c2ccccc2)C(=O)NC2(C(=O)O)CCOCC2)cc(OCC)c1C(C)O (stereo partly drawn) [Example 4-76],10.7 nM
19,CCOc1cc(C(C)N(CCCCc2ccccc2)C(=O)NC2(C(=O)O)CC(F)(F)C2)cc(OCC)c1C#N (stereo not drawn) [Example 1-41],6.15 nM
20,CCOc1cc([C@@H](C)N(CCCC(F)(F)c2ccccc2)C(=O)NC2(C(=O)O)CCOCC2)cc(OCC)c1C1CC1 [Example 4-75],0.992 nM
21,"CCOc1cc([C@@H](C)N(CCCCc2ccccc2)C(=O)NC2(C(=O)O)CNC2)cc(OCC)c1C [Example 1-158, 3-({[(1R)-1-(3,5-Diethoxy-4-Methylphenyl)Ethyl](4-Phenylbutyl) Carbamoyl}Amino) Azetidine-3-Carboxylic Acid]",294 nM
22,CCOc1c(C(C)=O)ccc([C@@H](C)N(CCCCc2ccccc2)C(=O)NC2CCC2C(=O)O)c1C (stereo partly drawn) [Example 1-127],33.7 nM
23,CCOc1cc(C(C)N(CCCCc2ccccc2)C(=O)NC(Cc2cccnc2)C(=O)O)cc(OCC)c1C (stereo not drawn) [Example 1-10],88.5 nM
24,CCOc1cc([C@@H](C)N(CCCCc2ccccc2)C(=O)NC2(C(=O)O)CCCCCC2)cc(OCC)c1C [Example 1-119],53.6 nM
25,CCOc1cncc(C(C)N(CCCCc2ccccc2)C(=O)NC2(C(=O)O)CC(F)(F)C2)c1 (stereo not drawn) [Example 5-89],55.3 nM
26,CCOc1cc([C@@H](C)N(CCCCc2cccc(C)c2)C(=O)NC2(C(=O)O)CC(F)(F)C2)cc(OCC)c1C [Example 4-16],4.05 nM
27,CCOc1cc(C(C)N(CCCCc2ccccc2)C(=O)NC2CCC2C(=O)O)cc(OCC)c1C(C)=O (stereo not drawn) [Example 1-125],3.09 nM
28,"CCOc1cc([C@@H](C)N(CCCCc2ccccc2)C(=O)NC2(C(=O)O)CCOCC2)cc(OCC)c1C(C)O (stereo partly drawn) [Example 1-152, 4-{[{(1R)-1-[3,5-Diethoxy-4-(1-Hydroxyethyl)Phenyl]Ethyl}(4-Phenylbutyl) Carbamoyl]Amino}Oxane-4-Carboxylic Acid]",5.17 nM

# More lines, now with the values ahead:
row,IC50,Compound
1,3.34 nM,"CCOc1cc([C@@H](C)N(CCCC(F)(F)c2ccccc2)C(=O)N[C@]2(C(=O)O)C[C@@H](OCC)C2)cc(OCC)c1C(C)=O [Example 4-44, Trans-1-({[(1R)-1-(4-Acetyl-3,5-Diethoxyphenyl)Ethyl](4,4-Difluoro-4-Phenylbutyl) Carbamoyl}Amino)-3-Ethoxycyclobutane-1-Carboxylic Acid]"
2,1.07 nM,CCOc1cc([C@@H](C)N(CCOCc2ccccc2)C(=O)N[C@]2(C(=O)O)C[C@@H](OCC)C2)c(C)c(OCC)c1C [Example 5-81]
3,1.1 nM,COc1cc(C(C)N(CCOCc2ccccc2)C(=O)NC2(C(=O)O)CC(OC)C2)c(C)c(OC)c1C1CC1 (stereo not drawn) [Example 5-155]
4,7.79 nM,CCOc1cc([C@@H](C)N(CCC(F)(F)Cc2ccccc2)C(=O)NC2(C(=O)O)CC(OCC)C2)cc(OCC)c1C(C)=O (stereo partly drawn) [Example 4-92]
5,1.04 nM,CCOc1c(C(C)=O)ccc([C@@H](C)N(CCOCc2ccccc2)C(=O)NC2(C(=O)O)CC(F)(F)C2)c1C [Example 4-106]
6,8.95 nM,CCOc1c(C(C)=O)ccc([C@@H](C)N(CCO[C@@H](C)c2ccccc2)C(=O)NC2(C(=O)O)CC2)c1C [Example 4-113]
7,3530 nM,CCOc1cc(C(C)N(CCO[C@@H](C)c2ccccc2)C(=O)NC2(C(=O)OC(C)(C)C)CC(OCC)C2)cc(OCC)c1C(C)=O (stereo partly drawn) [Example 6-14]
8,3.62 nM,COc1cc(C(C)N(CCOCc2ccccc2)C(=O)NC2(C(=O)O)CC(F)(F)C2)c(C)c(OC)c1C (stereo not drawn) [Example 5-147]
9,1.59 nM,CCOc1cc([C@@H](C)N(CCCC(F)(F)c2ccccc2)C(=O)NC2(C(=O)O)CC2)cc(OCC)c1C(C)=O [Example 4-45]
10,4.3 nM,COc1cc(C(C)N(CCOCc2ccccc2)C(=O)NC2(C(=O)O)CC(OC)C2)c(C)c(OC)c1C(C)=O (stereo not drawn) [Example 5-154]
11,7.17 nM,CCOc1cc([C@@H](C)N(CCC2Cc3ccccc3C2)C(=O)NC2(C(=O)O)CC(OC)C2)cc(OCC)c1C(C)=O (stereo partly drawn) [Example 4-23]
12,0.815 nM,CCOc1cc([C@@H](C)N(CCOCc2ccccc2)C(=O)NC2(C(=O)O)CC(F)(F)C2)cc(OCC)c1C(C)=O [Example 4-102]
13,2.74 nM,CCOc1cc(C(C)N(CCOCc2ccccc2)C(=O)NC2(C(=O)O)CC(OC)C2)c(Cl)c(OCC)c1C(C)=O (stereo not drawn) [Example 5-205]
14,1.36 nM,CCOc1cc([C@@H](C)N(CCCCc2ccccc2)C(=O)NC2(C(=O)O)CC(F)(F)C2)c(Cl)c(OCC)c1C(C)=O [Example 5-46]
15,2.53 nM,CCOc1cc(C(C)N(CCOCc2ccccc2)C(=O)NC2(C(=O)O)CC2)c(Cl)c(OCC)c1C(C)=O (stereo not drawn) [Example 5-184]
16,15.4 nM,CCOc1c(C(C)=O)ccc([C@@H](C)N(CCC(F)(F)Cc2ccccc2)C(=O)NC2(C(=O)O)CC(F)(F)C2)c1C [Example 4-88]
17,3.21 nM,COc1cc(C(C)N(CCOC(C)c2ccccc2)C(=O)NC2(C(=O)O)CCC2)c(Cl)c(OC)c1C1CC1 (stereo not drawn) [Example 5-138]
18,1.33 nM,CCOc1cc(C(C)N(CCO[C@@H](C)c2ccccc2)C(=O)NC2(C(=O)O)CC(OC)C2)c(C)c(OCC)c1C1CC1 (stereo partly drawn) [Example 5-203]
19,3.43 nM,CCOc1cc([C@@H](C)N(CCO[C@@H](C)c2ccccc2)C(=O)N[C@]2(C(=O)O)C[C@@H](OCC)C2)cc(OCC)c1C(C)O (stereo partly drawn) [Example 4-136]
20,3.91 nM,CCOc1c(C(C)=O)ccc([C@@H](C)N(CCO[C@@H](C)c2ccccc2)C(=O)NC2(C(=O)O)CCC2)c1C [Example 4-116]
21,3.62 nM,CCOc1cc([C@@H](C)N(CCO[C@@H](C)c2ccccc2)C(=O)N[C@]2(C(=O)O)C[C@H](OC)C2)c(C)c(OCC)c1C(C)=O [Example 5-72]
22,0.817 nM,CCOc1cc(C(C)N(CCOCc2ccccc2)C(=O)NC2(C(=O)O)CCC2)c(Cl)c(OCC)c1C1CC1 (stereo not drawn) [Example 5-190]
23,4 nM,CCOc1c(C(C)=O)ccc([C@@H](C)N(CCCCc2ccccc2)C(=O)NC2(C(=O)O)CC(OC)C2)c1C (stereo partly drawn) [Example 1-93]
24,15.3 nM,CCOc1cc([C@@H](C)N(CCO[C@@H](C)c2cccc(Cl)c2)C(=O)NC2(C(=O)O)CCC2)c(Cl)c(OCC)c1C(C)=O [Example 4-176]
25,4.08 nM,CCOc1cc([C@@H](C)N(CCOCc2ccccc2)C(=O)NC2(C(=O)O)CC(OC)C2)cc(OCC)c1C(C)=O (stereo partly drawn) [Example 4-107]
26,4.9 nM,CCOc1cc([C@@H](C)N(CCCC(F)(F)c2ccccc2)C(=O)N[C@]2(C(=O)O)C[C@@H](OCC)C2)cc(OCC)c1C(C)=O [Example 4-69]
27,10.8 nM,COc1cc([C@@H](C)N(CCO[C@@H](C)c2ccccc2)C(=O)NC2(C(=O)O)CC(OC)C2)c(Cl)c(OC)c1C(C)=O (stereo partly drawn) [Example 5-124]
28,3.5 nM,CCOc1cc(C(C)N(CCOC(C)c2ccccc2)C(=O)NC2(C(=O)O)CC(OC)C2)c(Cl)c(OCC)c1C(C)=O (stereo not drawn) [Example 5-208]

# Source: patent US12338203B2 (TAISHO PHARMACEUTICAL CO., LTD., priority 2019, dated 2025)
